# Like-named read-outs stand apart in the source and are kept apart here.
# How the values were obtained:
# [1] = tested on: MDA-MB; conditions: for Fold change in viability AVG / MDA-MB AVG: MDA-MB; for Average cell viability: human, 72 h
# [2] = tested on: PC3; conditions: human, 72 h, 1 ug/mL
# [3] = tested on: MDA-MB; test: cells; conditions: Homo sapiens, read-out: Average cell viability, MDA-MB
# [4] = tested on: PC3; test: CIMA assay, cell viability, PC3
# [5] = tested on: A549 (lung carcinoma); test: CIMA assay (colorimetric indicator of metabolic activity), cell viability, A549; conditions: for Average cell viability: unit assumed
# Experimental: (§1) Stock solutions of the extracts were prepared in dimethylsulfoxide (DMSO) at 10 mg/mL and stored in 200 μl aliquots at −20° C. until analysis. This preparation ensured that the DMSO delivered to cells in culture never exceeded 1%.
# (§2) Prepared extracts were assessed following chronic exposure conditions in which cells were seeded at 2×10^3 cells/well (96 well-plate) and incubated with test compounds for 72 h. Each compound was evaluated over a range of concentrations (0, 10, 25, 50 or 100 μg/ml). Cell proliferation was initially assessed using a standard colorimetric indicator of metabolic activity (CIMA) assay. In this assay, tetrazole reduction was evaluated as a measure of metabolic function that evaluates mitochondrial activity to determine the extent of cell proliferation within a culture. This assay is based on the reduction of yellow tetrazolium salt to purple formazan by mitochondrial reductases enzyme in viable cells, resulting in a color changed that confers a change in absorbance.
# [6] = tested on: SKOV3 (ovarian adenocarcinoma); test: CIMA assay, cell viability, SKOV3; conditions: for Fold change in viability AVG: SKOV, 1 ug/mL
# Experimental: as §1, §2
# [7] = A549, 1 ug/mL, listed as 174-13-14-3
# [8] = A549, 10 ug/mL, listed as 169-14-15-4
# [9] = A549, 10 ug/mL, listed as 174-13-14-3
# [10] = A549, 50 ug/mL, listed as 169-14-15-4
# [11] = A549, 50 ug/mL, listed as 174-13-14-3
# [12] = A549, 100 ug/mL, listed as 169-14-15-4
# [13] = A549, 100 ug/mL, listed as 174-13-14-3
compound,measurement,setting,value
"CC/C=C\C/C=C\C/C=C\C/C=C\C/C=C\CCCC(=O)OCC(COC1OC(CO)C(O)C(O)C1O)OC(=O)CCCCCCCCCCCCCCC (stereo not shown) [Compound 2, MGDG C20:5/C16:0]",Fold change in viability AVG,"[1]; 1 ug/mL, listed as 169-14-15-4",1.09
same,Fold change in viability AVG,"[1]; 1 ug/mL, listed as 174-13-14-3",1.11
same,Fold change in viability AVG,"[1]; 10 ug/mL, listed as 169-14-15-4",1.09
same,Fold change in viability AVG,"[1]; 10 ug/mL, listed as 174-13-14-3",0.90
same,Fold change in viability AVG,"[1]; 50 ug/mL, listed as 169-14-15-4",0.49
same,Fold change in viability AVG,"[1]; 50 ug/mL, listed as 174-13-14-3",0.23
same,Fold change in viability AVG,"[1]; 100 ug/mL, listed as 169-14-15-4",0.24
same,Fold change in viability AVG,"[1]; 100 ug/mL, listed as 174-13-14-3",0.22
same,MDA-MB AVG,"[1]; sample at 1 ug/mL, listed as 169-14-15-4",1.09
same,MDA-MB AVG,"[1]; sample at 1 ug/mL, listed as 174-13-14-3",1.11
same,MDA-MB AVG,"[1]; sample at 10 ug/mL, listed as 169-14-15-4",1.09
same,MDA-MB AVG,"[1]; sample at 10 ug/mL, listed as 174-13-14-3",0.90
same,MDA-MB AVG,"[1]; sample at 50 ug/mL, listed as 169-14-15-4",0.49
same,MDA-MB AVG,"[1]; sample at 50 ug/mL, listed as 174-13-14-3",0.23
same,MDA-MB AVG,"[1]; sample at 100 ug/mL, listed as 169-14-15-4",0.24
same,MDA-MB AVG,"[1]; sample at 100 ug/mL, listed as 174-13-14-3",0.22
same,Average cell viability,[1]; 1 ug/mL,102%
same,Average cell viability,[1]; 10 ug/mL,83%
same,Average cell viability,[1]; 100 ug/mL,20%
same,Average cell viability,[2],97%
same,viability at 1 µg/mL,[3]; 1 ug/mL,100%
same,viability at 10 µg/mL,[3]; 10 ug/mL,101%
same,viability at 100 µg/mL,[3]; 100 ug/mL,22%
same,viability at 1 µg/mL,"[4]; Homo sapiens, PC-3, read-out: Average cell viability, PC3, 1 ug/mL",107%
same,Fold change in viability AVG,"[4]; PC3, 1 ug/mL, listed as 169-14-15-4",1.11
same,Fold change in viability AVG,"[4]; PC3, 1 ug/mL, listed as 174-13-14-3",1.00
same,Fold change in viability AVG,"[4]; PC3, 10 ug/mL, listed as 169-14-15-4",0.93
same,Fold change in viability AVG,"[4]; PC3, 10 ug/mL, listed as 174-13-14-3",0.71
same,Fold change in viability AVG,"[4]; PC3, 50 ug/mL, listed as 169-14-15-4",0.51
same,Fold change in viability AVG,"[4]; PC3, 50 ug/mL, listed as 174-13-14-3",0.05
same,Fold change in viability AVG,"[4]; PC3, 100 ug/mL, listed as 169-14-15-4",0.15
same,Fold change in viability AVG,"[4]; PC3, 100 ug/mL, listed as 174-13-14-3",0.05
same,PC3 AVG,"[4]; PC3, sample at 1 ug/mL, listed as 169-14-15-4",1.11
same,PC3 AVG,"[4]; PC3, sample at 1 ug/mL, listed as 174-13-14-3",1.00
same,PC3 AVG,"[4]; PC3, sample at 10 ug/mL, listed as 169-14-15-4",0.93
same,PC3 AVG,"[4]; PC3, sample at 10 ug/mL, listed as 174-13-14-3",0.71
same,PC3 AVG,"[4]; PC3, sample at 50 ug/mL, listed as 169-14-15-4",0.51
same,PC3 AVG,"[4]; PC3, sample at 50 ug/mL, listed as 174-13-14-3",0.05
same,PC3 AVG,"[4]; PC3, sample at 100 ug/mL, listed as 169-14-15-4",0.15
same,PC3 AVG,"[4]; PC3, sample at 100 ug/mL, listed as 174-13-14-3",0.05
same,Fold change in viability AVG,"[5]; A549, 1 ug/mL, listed as 169-14-15-4",1.19
same,Fold change in viability AVG,[5]; [7],1.12
same,Average cell viability,[5]; [7],96%
same,Fold change in viability AVG,[5]; [8],1.14
same,Average cell viability,[5]; [8],98%
same,Fold change in viability AVG,[5]; [9],0.60
same,Average cell viability,[5]; [9],52%
same,Fold change in viability AVG,[5]; [10],0.98
same,Average cell viability,[5]; [10],84%
same,Fold change in viability AVG,[5]; [11],0.60
same,Average cell viability,[5]; [11],51%
same,Fold change in viability AVG,[5]; [12],0.74
same,Average cell viability,[5]; [12],64%
same,Fold change in viability AVG,[5]; [13],0.41
same,Average cell viability,[5]; [13],35%
same,A549 AVG,"[5]; A549, sample at 1 ug/mL, listed as 169-14-15-4",1.19
same,A549 AVG,"[5]; A549, sample at 1 ug/mL, listed as 174-13-14-3",1.12
same,A549 AVG,"[5]; A549, sample at 10 ug/mL, listed as 169-14-15-4",1.14
same,A549 AVG,"[5]; A549, sample at 10 ug/mL, listed as 174-13-14-3",0.60
same,A549 AVG,"[5]; A549, sample at 50 ug/mL, listed as 169-14-15-4",0.98
same,A549 AVG,"[5]; A549, sample at 50 ug/mL, listed as 174-13-14-3",0.60
same,A549 AVG,"[5]; A549, sample at 100 ug/mL, listed as 169-14-15-4",0.74
same,A549 AVG,"[5]; A549, sample at 100 ug/mL, listed as 174-13-14-3",0.41
same,viability at 1 µg/mL,"[5]; Homo sapiens, A549, read-out: Average cell viability, A549, 1 ug/mL",102%
same,viability at 50 µg/mL,"[6]; Homo sapiens, SK-OV-3, read-out: Average cell viability, SKOV, 50 ug/mL",67%
same,Fold change in viability AVG,[6]; listed as 169-14-15-4,1.16
same,Fold change in viability AVG,[6]; listed as 174-13-14-3,0.89

# Source: patent US11292807B2 (OCEANS LTD., priority 2015, dated 2022)
